Test results as given in article PMC5552954, “Regulation of Burkholderia cenocepacia biofilm formation by RpoN and the c‐di‐GMP effector BerB” (MicrobiologyOpen, 2017).

Legend:
BerA = biological target: T1, BerA (Burkholderia cenocepacia, UniProt B4EIC5); experiment: SPR, steady-state affinity fit; assay type: binding; settings: labelled compound; biotinylated c-di-GMP immobilised on chip, protein injected; PBS buffer pH 7.4; known binder as positive control
T1 construct: gene BCAM1349; berA in pGEX-6P-2, expressed in E. coli Rosetta (DE3) pLysS as GST fusion, eluted with glutathione

BerB = biological target: T2, BerB (Burkholderia cenocepacia, UniProt B4EHY3); experiment: SPR, steady-state affinity fit; assay type: binding; settings: labelled compound; biotinylated c-di-GMP immobilised on chip, protein injected; HEPES buffer pH 7.4, 150 mmol/L NaCl, 0.05% Tween
T2 construct: gene BCAM1342; berB in pGEX-6P-2, expressed in E. coli Rosetta (DE3) pLysS as GST fusion, eluted with glutathione
From the text: SPR, steady-state affinity fit on BerB | BerB was able to bind to the biotinylated c‐di‐GMP in a concentration‐dependent manner

T2 sequence (B4EHY3 entry or part of it): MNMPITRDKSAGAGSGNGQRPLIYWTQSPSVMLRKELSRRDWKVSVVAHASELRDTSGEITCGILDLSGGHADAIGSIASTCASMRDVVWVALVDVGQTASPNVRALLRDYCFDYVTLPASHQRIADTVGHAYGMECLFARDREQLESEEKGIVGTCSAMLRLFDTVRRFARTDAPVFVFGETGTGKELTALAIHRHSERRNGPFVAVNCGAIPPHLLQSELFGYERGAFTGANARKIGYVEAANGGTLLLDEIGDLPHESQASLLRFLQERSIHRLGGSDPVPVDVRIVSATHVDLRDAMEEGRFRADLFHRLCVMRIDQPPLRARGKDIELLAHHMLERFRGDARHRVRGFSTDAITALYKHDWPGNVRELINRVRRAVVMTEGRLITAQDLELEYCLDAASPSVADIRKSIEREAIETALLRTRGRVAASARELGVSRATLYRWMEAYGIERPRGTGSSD
T1 sequence (B4EIC5 entry or part of it): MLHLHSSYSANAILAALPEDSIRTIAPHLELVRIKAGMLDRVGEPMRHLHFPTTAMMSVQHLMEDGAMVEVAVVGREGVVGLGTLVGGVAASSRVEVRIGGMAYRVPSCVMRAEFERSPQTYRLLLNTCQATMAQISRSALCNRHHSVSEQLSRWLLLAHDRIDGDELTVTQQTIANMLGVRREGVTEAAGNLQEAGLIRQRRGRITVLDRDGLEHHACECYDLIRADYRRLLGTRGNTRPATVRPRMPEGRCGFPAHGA

With biotinylated c-di-GMP the Kd (BerA) was ~3000 nM and the Kd (BerB) was ~3000 nM.
